{"source": "paper PMC6235670", "about": "“An mTOR Signaling Modulator Suppressed Heterotopic Ossification of Fibrodysplasia Ossificans Progressiva” (Stem Cell Reports, 2018)", "key": {"[1]": {"test_system": "ATDC5/FOP-ACVR1 cells", "assay": "ALP assay (HTS and dose-response) in ATDC5/FOP-ACVR1", "type": "cell-based, mouse", "settings": "same protocol as HTS (72 h)"}, "[2]": {"test_system": "ATDC5/FOP-ACVR1 cells", "assay": "AlamarBlue viability assay in ATDC5/FOP-ACVR1", "settings": "AlamarBlue, ATDC5/FOP-ACVR1, 10 μM", "experimental": "(§1) Generation of ATDC5 stably expressing ACVR1. WT - or FOP-ACVR1 was inserted into doxycycline (Dox)- […]\n(§2) (KW111/WT-ACVR1 or KW111/FOP-ACVR1). KW111/WT-ACVR1 or KW111/FOP-ACVR1 and PBaseII […]\n(§3) FuGeneHD® (Promega) according to the manufacturer’s protocol, and the neomycin- resistant population (500 µg/mL) was selected. Further selection was performed by selecting a mCherry high positive population (< 5%) after six hours of Dox treatment, sorting it with fluorescent-activated cell sorting (FACS) using AriaII (BD) according to the manufacturer’s protocol, and designating it as ATDC5/WT-ACVR1 or ATDC5/FOP-ACVR1.\n(§4) KW111 included PB, active transposable PB elements; TRE-mCMVP, Tetracycline Response Element and a minimal CMV promoter; rtTA, reverse tetracycline-controlled transactivator. PBaseII was an expression plasmid vector containing the PB transposase cDNA with optimized codon usage to human under the control […]\n(§5) HTS campaign and follow-up screens. ATDC5/FOP-ACVR1 cells were plated in 96-well white plates (2,000 cells/well/40 µ L, Corning) in DMEM/F-12 supplemented with 5% (v/v) FBS. […]\n(§6) 37 °C under 5% CO2. After 3 days incubation, Alkaline Phosphatase activity (ALP) or AlamarBlue activity was measured using Amplite™ Colorimetric Alkaline Phosphatase Assay Kit (AAT Bioquest) or alamarBlue® Cell Viability Reagent (Thermo Fisher Scientific) according to the manufacturer’s protocol, respectively. T h e […]\n(§7) was measured on POWERSCAN4 (DS Pharma Biomedical) or EnVision® Multilabel Reader (PerkinElmer).\n(§8) Inhibitory effects of the screened compounds are given as percent inhibition, which was calculated using the following equation: (1-([Abs of compound] - [Abs of Min])/([Abs of Max] - [Abs of Min]))× 100, where [Abs of Max] and [Abs of Min] are the mean Abs of DMSO control and 1 µM DMH-1, respectively. The Z’ factor, which is widely used as a measure of the assay quality of each plate, was calculated using the following equation: Z’ factor = 1 - 3 × ([SD of Max] + [SD of Min])/([Abs of Max] - [Abs of Min]) (SI Appendix, Fig.\n(§9) The S/B (signal-to-background) ratio was calculated using the following equation: ([Abs of Max]/[Abs of Min]) (SI Appendix, Fig. S3B).\n(§10) Using ATDC5/FOP-ACVR1 cells, we performed a first screening (n=2; test compounds = 1 µM, Fig. […]"}, "[3]": {"assay": "AlamarBlue viability assay in ATDC5/FOP-ACVR1", "settings": "mouse, ATDC5 cells stably expressing FOP-ACVR1 (ATDC5/FOP-ACVR1)", "experimental": "as §1, §2, §3, §4, §5, §6, §7, §8, §9, §10"}, "[4]": {"test_system": "mTOR signaling (p-S6)", "assay": "p-S6 western blotting during chondrogenic induction of FOP-iMSCs with activin A", "type": "cell-based, human", "settings": "1 μM", "experimental": "Western blotting. SDS- PAGE and blotting with whole-cell lysates were performed by standard procedures.\nProtein bands were detected with ECL Prime Western Blotting Detection Reagent (GE Healthcare) and visualized using BIO-RAD Molecular Imager® Chemi-DocTM XRS+ with Image LabTM software (Bio-Rad).\nAll data (relative intensity) were corrected by β-actin.\nAntibodies for western blotting and immunostaining.\nN ame Company Cat. No Concentration\nHuman Activin RIA/ALK-2 Antibody R&D Systems) AF637 1:100\nAnti-human Vimentin antibody Abcam ab16700 1:40\nCollagen I Antibody Novus NB600- 1:100\nAnti-rabbit IgG, HRP-linked Antibody Cell Signaling #7074 1:10000 […]\n2nd Goat anti-Rabbit IgG (H+L) Secondary Antibody, Invitrogen A-11008 1:100 antibody Alexa Fluor® 488 conjugate\nGoat anti-Rabbit IgG (H+L) Secondary Antibody, Invitrogen A-21428 1:500"}, "[5]": {"test_system": "FOP-iMSCs", "assay": "Microarray / pathway analysis of activin A-induced chondrogenesis of FOP-iMSCs", "type": "cell-based, human", "settings": "100 nM, 100 ng/mL Activin-A, 7 days, microarray, N = 1", "experimental": "Microarray experiments. 2D chondrogenic induction was performed in FOP-iMSCs stimulated with or without 100 ng/mL Activin-A, TAK 165, CP-724714 and Lapatinib. Seven days after incubation, mRNA was extracted. RNA was reverse transcribed, biotin-labeled and hybridized to GeneChip Human Gene 1.0 ST Expression Array, which was subsequently washed and scanned according to the manufacturer’s instructions (Affymetrix). Raw CEL files were imported into GeneSpring GX 12.6.1 software (Agilent Technologies), and expression values were calculated with the RMA16 algorithm. Pathway analysis was performed by Ingenuity pathway analysis (Qiagen). […]"}, "[6]": {"test_system": "FOP-iMSCs", "assay": "2D chondrogenic induction of FOP-iMSCs with activin A (GAG, Alcian blue)", "type": "cell-based, human", "settings": "activin A, 7 days, 100 nM and 1 µM"}}, "data": [{"smiles": "CC(C)(C)n1nc(-c2cccc3ccccc23)c2c(N)ncnc21", "note": "[1-Naphthyl PP1]", "values": [{"measurement": "IC50", "setting": "[1]", "result": 12200, "unit": "nM"}, {"measurement": "Viability (%) @10 μM", "setting": "[2]", "result": 83, "unit": "%"}]}, {"smiles": "COc1ccc(-c2ccc3c(N4CCOC[C@@H]4C)nc(N4CCOC[C@@H]4C)nc3n2)cc1CO", "note": "[AZD8055]", "values": [{"measurement": "IC50", "setting": "[1]; Mus musculus", "result": 77, "unit": "nM"}, {"measurement": "viability at 3 days, 10 µM", "setting": "[3]", "result": 25, "unit": "%"}]}, {"smiles": "C=C1/C(=C\\C=C2/CCC[C@]3(C)[C@@H]([C@H](C)CCCC(C)C)CC[C@@H]23)C[C@@H](O)C[C@@H]1O", "note": "[Alfacalcidol]", "values": [{"measurement": "IC50", "setting": "[1]; Mus musculus", "result": 526, "unit": "nM"}, {"measurement": "viability at 3 days, 10 µM", "setting": "[3]", "result": 54, "unit": "%"}]}, {"smiles": "Cn1c(=O)n(-c2ccc(C(C)(C)C#N)cc2)c2c3cc(-c4cnc5ccccc5c4)ccc3ncc21", "note": "[BEZ235]", "values": [{"measurement": "IC50", "setting": "[1]; Mus musculus", "result": 87, "unit": "nM"}, {"measurement": "viability at 3 days, 10 µM", "setting": "[3]", "result": 21, "unit": "%"}]}, {"smiles": "Cc1ccc(-n2nc(C(C)(C)C)cc2NC(=O)Nc2ccc(OCCN3CCOCC3)c3ccccc23)cc1", "note": "[BIRB 796]", "values": [{"measurement": "IC50", "setting": "[1]; Mus musculus", "result": 9, "unit": "nM"}, {"measurement": "viability at 3 days, 10 µM", "setting": "[3]", "result": 99, "unit": "%"}]}, {"smiles": "COCC(=O)NC/C=C/c1ccc2ncnc(Nc3ccc(Oc4ccc(C)nc4)c(C)c3)c2c1", "note": "[CP-724714]", "values": [{"measurement": "p-S6 after 24-hr stimulation", "setting": "[4]; 24 hr", "result": "no effects"}, {"measurement": "p-S6 after 7 days of stimulation", "setting": "[4]; 7 days", "result": "not"}, {"measurement": "ADAMTS5 expression ratio to the TAK 165-treated group", "setting": "[5]", "result": 3.1}, {"measurement": "BMP4 expression ratio to the TAK 165-treated group", "setting": "[5]", "result": 5.2}, {"measurement": "DKK1 expression ratio to the TAK 165-treated group", "setting": "[5]", "result": 0.2}, {"measurement": "FOS expression ratio to the TAK 165-treated group", "setting": "[5]", "result": 3.2}, {"measurement": "FRZB expression ratio to the TAK 165-treated group", "setting": "[5]", "result": 3.6}, {"measurement": "FZD3 expression ratio to the TAK 165-treated group", "setting": "[5]", "result": 0.3}, {"measurement": "ITGA3 expression ratio to the TAK 165-treated group", "setting": "[5]", "result": 3.9}, {"measurement": "ITGB3 expression ratio to the TAK 165-treated group", "setting": "[5]", "result": 3.3}, {"measurement": "MMP1 expression ratio to the TAK 165-treated group", "setting": "[5]", "result": 11.5}, {"measurement": "MMP13 expression ratio to the TAK 165-treated group", "setting": "[5]", "result": 5.4}, {"measurement": "PIK3R3 expression ratio to the TAK 165-treated group", "setting": "[5]", "result": 0.4}, {"measurement": "SPP1 expression ratio to the TAK 165-treated group", "setting": "[5]", "result": 4.4}, {"measurement": "TNFRSF11B expression ratio to the TAK 165-treated group", "setting": "[5]", "result": 3.4}, {"measurement": "WIF1 expression ratio to the TAK 165-treated group", "setting": "[5]", "result": 0.1}, {"measurement": "WNT16 expression ratio to the TAK 165-treated group", "setting": "[5]", "result": 3.0}, {"measurement": "effect on GAG in the chondrogenesis of FOP-iMSCs (ERBB2 kinase inhibitors)", "setting": "[6]", "result": "no effect"}]}, {"smiles": "C=C1/C(=C\\C=C2/CCC[C@]3(C)[C@@H]([C@H](C)/C=C/[C@@H](O)C4CC4)CC[C@@H]23)C[C@@H](O)C[C@@H]1O", "note": "[Calcipotriol]", "values": [{"measurement": "IC50", "setting": "[1]; Mus musculus", "result": 0.3, "unit": "nM"}, {"measurement": "viability at 3 days, 10 µM", "setting": "[3]", "result": 80, "unit": "%"}]}]}
